The values below come from patent US11459332B2, “Substituted 2-azabicyclo[3.1.0]hexanes as TRK kinases inhibitors” (FOCHON BIOSCIENCES, LTD., priority 2018, dated 2022).

Assay type in all cases: cell-based
In assay [1] the target is T1, TPM3-TRKA (Homo sapiens, UniProt P04629).
T1 construct: TPM3 (fusion partner, N-terminal part); expressed in transfected cells; the other entry of the earlier key: TPM3 (P06753, Tropomyosin alpha-3 chain)
Description: Engineered Ba/F3 cell proliferation inhibition (MTS), TPM3-TRKA. To be noted: Ba/F3-TPM3-TRKA cells, 72 h. From the text: (§1) MTS testing kit was purchased from Promega (Madison, Wis., USA). The RPMI-1640, Fetal bovine serum and Penicillin-Streptomycin were purchased from Gibco (San Francisco, Calif., USA). Dimethyl sulfoxide (DMSO) and Puromycin were purchased from Sigma (St. Louis, Mo., USA). Mouse interleukin-3 (IL-3) was purchased from Cell signaling Technology (Boston, Mass., USA).
(§2) To investigate whether a compound is able to inhibit the activity of TRK fusion mutation in cells, a mechanism-based assay using engineered Ba/F3 cell lines stably overexpressing oncogenic rearrangement or gene mutation of TRK (TPM3-TRKA, TPM3-TRKA-G595R, AFAP1-TRKB, ETV6-TRKC and ETV6-TRKC-G623R) were developed. In this assay, inhibition of TRK fusion mutation was detected by the cell proliferation inhibition of engineered Ba/F3 cells. Engineered Ba/F3 cells were cultured in culture flasks to 40-80% confluence in RPMI-1640 supplemented with 10% fetal bovine serum, 2 ug/mL puromycin. Cells were collected and plated onto 96-well plates at desired cell density (Ba/F3-TPM3-TRKA: 3×10^4/mL, Ba/F3-TPM3-TRKA-G595R: 1×10^5/mL, Ba/F3-AFAP1-TRKB: 1×10^5/mL, Ba/F3-ETV6-TRKC: 3×10^4/mL, Ba/F3-ETV6-TRKC-G623R: 3×10^4/mL). Plates were incubated at 37° C., with 5% CO2 for 4 h. Compounds were then added to the plates with the final compound concentrations of 10000, 3333, 1111, […], 123, 41.2, 13.7, 4.6 and 1.5 nM. Plates were incubated at 37° C., with 5% CO2 for 72 h. A mixture of 20 μl MTS/100 μl medium were added to each well and the plates were incubated at 37° C., with 5% CO2 for exactly 2 h. The reaction was stopped by adding 25 μl of 10% SDS per well. The absorbance was measured at 490 nm and 650 nm (reference wavelength). IC50 was calculated using GraphPad Prism 5.0 software.

The subject of assay [2] is KM12 cells. Description: KM12 cells proliferation inhibition (MTS), mechanism-based TRK assay. To be noted: Homo sapiens, 72 h.
Excerpt: as §1
To investigate whether a compound is able to inhibit the activity of TRK in cells, a mechanism-based assay using KM12 cells was developed. In this assay, inhibition of TRK was detected by the inhibition of KM12 cells proliferation. KM12 cells were cultured in culture flasks to 40-80% confluence in RPMI-1640 plus 10% fetal bovine serum. Cells were collected and plated onto 96-well plates at 1000 cells/well. Plates were incubated at 37° C., with 5% CO2 for 4 h. Compounds were added to the plates, the final compound concentrations were […], 123.5, 41.2, 13.7, 4.6 and 1.5 nM. Place plates at 37° C., with 5% CO2 for KM12 cells 72 h. 20 μl MTS/100 μl medium mixture solution were added to each well and incubate the plates for exactly 2 h. Stop the reaction by adding 25 μl 10% SDS per well. Measure absorbance at 490 nm and 650 nm (reference wavelength). IC50 was calculated using GraphPad Prism 5.0.

Assay [3] concerns the target T2, ETV6-TRKC (Homo sapiens, UniProt Q16288).
T2 construct: ETV6 (fusion partner, N-terminal part); expressed in transfected cells; the other entry of the earlier key: ETV6 (P41212, Transcription factor ETV6)
In words: Engineered Ba/F3 cell proliferation inhibition (MTS), ETV6-TRKC. To be noted: Ba/F3-ETV6-TRKC cells, 72 h.
Excerpt: as §1, §2

For assay [4], the target named is T3, TPM3-TRKA-G595R (Homo sapiens, UniProt P04629, G595R).
T3 construct: TPM3 (fusion partner, N-terminal part); expressed in transfected cells; the other entry of the earlier key: TPM3 (P06753, Tropomyosin alpha-3 chain)
T3 sequence (P04629 510-796 G595R limits assumed): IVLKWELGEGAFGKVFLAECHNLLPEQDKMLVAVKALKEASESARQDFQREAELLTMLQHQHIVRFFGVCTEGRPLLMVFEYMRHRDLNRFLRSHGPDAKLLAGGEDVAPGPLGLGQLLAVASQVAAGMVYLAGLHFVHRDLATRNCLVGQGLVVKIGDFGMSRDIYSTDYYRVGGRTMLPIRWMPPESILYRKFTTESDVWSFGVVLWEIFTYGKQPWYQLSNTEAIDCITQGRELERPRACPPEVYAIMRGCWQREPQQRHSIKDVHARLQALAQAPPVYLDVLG
Description: Engineered Ba/F3 cell proliferation inhibition (MTS), TPM3-TRKA-G595R. To be noted: Ba/F3-TPM3-TRKA-G595R cells, 72 h.
Excerpt: as §1, §2

T1 sequence (P04629 510-796 limits assumed): as the sequence (P04629 510-796 G595R limits assumed) above, with R86G counted along it
T2 sequence (Q16288 530-825 isoform Q16288-3 limits assumed): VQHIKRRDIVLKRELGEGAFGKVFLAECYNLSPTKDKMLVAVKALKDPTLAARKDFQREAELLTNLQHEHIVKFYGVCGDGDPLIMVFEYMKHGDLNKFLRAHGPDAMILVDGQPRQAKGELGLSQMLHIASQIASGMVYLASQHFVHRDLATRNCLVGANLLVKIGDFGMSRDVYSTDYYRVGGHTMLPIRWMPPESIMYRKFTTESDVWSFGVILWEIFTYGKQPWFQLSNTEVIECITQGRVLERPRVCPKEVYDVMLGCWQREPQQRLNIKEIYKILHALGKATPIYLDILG

For orientation: IC50 means the midpoint of a concentration-inhibition curve. A higher IC50 goes with weaker potency. For the molecule `O=C(Nc1cnc2ccc(N3CC[C@H]4C[C@]43c3cc(F)ccc3F)nn12)N1CC[C@@H](O)C1` [Example 8, (R)-N-(6-((1R,5S)-1-(2,5-difluorophenyl)-2-azabicyclo[3.1.0]hexan-2-yl)imidazo[1,2-b]pyridazin-3-yl)-3-hydroxypyrrolidine-1-carboxamide], the IC50 in assay [1] came out at 5 nM; in assay [2], 25 nM; in assay [3] it was 5 nM.

Regarding `O=C(Nc1cnn2ccc(N3CC[C@H]4C[C@]43c3cc(F)ccc3Cl)nc12)N1CC[C@H](O)C1` [Example 2, (S)—N-(5-((1R,5S)-1-(2-chloro-5-fluorophenyl)-2-azabicyclo[3.1.0]hexan-2-yl)pyrazolo[1,5-a]pyrimidin-3-yl)-3-hydroxypyrrolidine-1-carboxamide], the 50% inhibitory concentration (IC50) in assay [1] worked out at 44 nM; in assay [2], 42 nM; in assay [3], 7 nM.

Turning to `Cc1cccnc1C(=O)Nc1cnn2ccc(N3CC[C@H]4C[C@]43c3cc(F)ccc3F)nc12` [Example 17, N-(5-((1R,5S)-1-(2,5-difluorophenyl)-2-azabicyclo [3.1.0]hexan-2-yl)pyrazolo[1,5-a]pyrimidin-3-yl)-3-methylpicolinamide], the IC50 in assay [1] came to 2 nM; in assay [2], 1 nM; in assay [3], 1 nM.

Regarding `O=C(Nc1cnn2ccc(N3CC[C@H]4C[C@]43c3cc(F)ccc3Cl)nc12)N1CC[C@@H](O)C1` [Example 3, (R)—N-(5-((1R,5S)-1-(2-chloro-5-fluorophenyl)-2-azabicyclo[3.1.0]hexan-2-yl)pyrazolo[1,5-a]pyrimidin-3-yl)-3-hydroxypyrrolidine-1-carboxamide], the results for the half-inhibitory concentration (IC50) in assay [1], in assay [2] and in assay [3] were 47 nM, 36 nM and 17 nM, respectively.

On to `Cc1cnc(C(=O)Nc2cnn3ccc(N4CC[C@H]5C[C@]54c4cc(F)ccc4F)nc23)nc1` [Example 20, N-(5-((1R,5S)-1-(2,5-difluorophenyl)-2-azabicyclo [3.1.0]hexan-2-yl)pyrazolo[1,5-a]pyrimidin-3-yl)-5-methylpyrimidine-2-carboxamide], for which the IC50 came out at 67 nM in assay [4], 14 nM in assay [1], 6 nM in assay [2] and 1 nM in assay [3].

For `O=C(Nc1cnn2ccc(N3CC[C@H]4C[C@]43c3cc(F)ccc3F)nc12)c1ncc(F)cn1` [Example 21, N-(5-((1R,5S)-1-(2,5-difluorophenyl)-2-azabicyclo [3.1.0]hexan-2-yl)pyrazolo[1,5-a]pyrimidin-3-yl)-5-fluoropyrimidine-2-carboxamide], the concentration for half-maximal inhibition (IC50) in assay [1] turned out to be 10 nM; in assay [2] it was 24 nM; in assay [3] it was 1 nM.

Take `O=C(Nc1cnn2ccc(N3CC[C@H]4C[C@]43c3cc(F)ccc3F)nc12)c1ccc(Cl)cn1` [Example 24, 5-chloro-N-(5-((1R,5S)-1-(2,5-difluorophenyl)-2-azabicyclo[3.1.0]hexan-2-yl)pyrazolo[1,5-a]pyrimidin-3-yl)picolinamide]: the IC50 in assay [2] stood at 38 nM; in assay [3], 16 nM.

In assay [2], `O=C(Nc1cnn2ccc(N3CC[C@H]4C[C@]43c3cc(F)ccc3F)nc12)N1CC[C@@H](F)C1` [Example 11, (R)-N-(5-((1R,5S)-1-(2,5-difluorophenyl)-2-azabicyclo[3.1.0]hexan-2-yl)pyrazolo [1,5-a]pyrimidin-3-yl)-3-fluoropyrrolidine-l-carboxamide] gave a half-inhibitory concentration (IC50) of 53 nM.

Regarding `CO[C@H]1CCN(C(=O)Nc2cnn3ccc(N4CC[C@H]5C[C@]54c4cc(F)ccc4F)nc23)C1` [Example 9, (S)-N-(5-((1R,5S)-1-(2,5-difluorophenyl)-2-azabicyclo[3.1.0]hexan-2-yl)pyrazolo [1,5-a]pyrimidin-3-yl)-3-methoxypyrrolidine-1-carboxamide], the half-inhibitory concentration (IC50) in assay [2] was found to be 42 nM; in assay [3] it was 4 nM.

Consider `O=C(Nc1cnn2ccc(N3CC[C@H]4C[C@]43c3cc(F)ccc3F)nc12)N1CC[C@@H](O)C1` [Example 7, (R)-N-(5-((1R,5S)-1-(2,5-difluorophenyl)-2-azabicyclo[3.1.0]hexan-2-yl)pyrazolo[1,5-a]pyrimidin-3-yl)-3-hydroxypyrrolidine-1-carboxamide], for which the values for the 50% inhibitory concentration (IC50) in assay [1], in assay [2] and in assay [3] were 3 nM, 20 nM and 3 nM, respectively.

As to `CC(C)c1nnc(-c2cnn3ccc(N4CC[C@H]5C[C@]54c4cc(F)ccc4F)nc23)o1` [Example 5, 2-(5-((1R,5S)-1-(2,5-difluorophenyl)-2-azabicyclo[3.1.0]hexan-2-yl)pyrazolo[1,5-a]pyrimidin-3-yl)-5-isopropyl-1,3,4-oxadiazole], the IC50 in assay [4] turned out to be 40 nM; in assay [1], 6 nM; in assay [2] it was 9 nM.

In the case of `O=C(Nc1cnn2ccc(N3CC[C@H]4C[C@]43c3cc(F)ccc3F)nc12)c1ccc(F)cn1` [Example 19, N-(5-((1R,5S)-1-(2,5-difluorophenyl)-2-azabicyclo [3.1.0]hexan-2-yl)pyrazolo[1,5-a]pyrimidin-3-yl)-5-fluoropicolinamide], the IC50 in assay [1] came to 2 nM; in assay [2] it was 1 nM; in assay [3] it was 1 nM.

Consider `O=C(Nc1cnn2ccc(N3CC[C@H]4C[C@]43c3cc(F)ccc3F)nc12)N1CCC(F)(F)C1` [Example 12, N-(5-((1R,5S)-1-(2,5-difluorophenyl)-2-azabicyclo [3.1.0]hexan-2-yl)pyrazolo[1,5-a]pyrimidin-3-yl)-3,3-difluoropyrrolidine-1-carboxamide], for which the half-maximal inhibitory concentration (IC50) worked out at 2 nM in assay [2] and 9 nM in assay [3].

Regarding `Cc1cccc(C(=O)Nc2cnn3ccc(N4CC[C@H]5C[C@]54c4cc(F)ccc4F)nc23)n1` [Example 16, N-(5-((1R,5S)-1-(2,5-difluorophenyl)-2-azabicyclo [3.1.0]hexan-2-yl)pyrazolo[1,5-a]pyrimidin-3-yl)-6-methylpicolinamide], the IC50 in assay [4] turned out to be 5 nM; in assay [1], 1 nM; in assay [2], 1 nM; in assay [3] it was 1 nM.

On to `O=C(Nc1cnc2ccc(N3CC[C@H]4C[C@]43c3cc(F)ccc3F)nn12)N1CC[C@H](O)C1` [Example 4, (S)—N-(6-((1R,5S)-1-(2,5-difluorophenyl)-2-azabicyclo[3.1.0]hexan-2-yl)imidazo[1,2-b]pyridazin-3-yl)-3-hydroxypyrrolidine-1-carboxamide], for which the values for the IC50 in assay [1], in assay [2] and in assay [3] were 5 nM, 2 nM and 1 nM, respectively.

On to `Cc1ccc(C(=O)Nc2cnn3ccc(N4CC[C@H]5C[C@]54c4cc(F)ccc4F)nc23)nc1` [Example 18, N-(5-((1R,5S)-1-(2,5-difluorophenyl)-2-azabicyclo [3.1,0]hexan-2-yl)pyrazolo[1,5-a]pyrimidin-3-yl)-5-methylpicolinamide], for which the values for the IC50 in assay [1], in assay [2] and in assay [3] were 33 nM, 2 nM and 1 nM, respectively.

Take `O=C1c2ccccc2CN1c1cnn2ccc(N3CC[C@H]4C[C@]43c3cc(F)ccc3F)nc12` [Example 28, 2-(5-((1R,5S)-1-(2,5-difluorophenyl)-2-azabicyclo [3.1.0]hexan-2-yl)pyrazolo[1,5-a]pyrimidin-3-yl)isoindolin-1-one]: the half-maximal inhibitory concentration (IC50) in assay [1] is 19 nM; in assay [3] it was 2 nM.

Consider `O=C(Nc1cnn2ccc(N3CC[C@H]4C[C@]43c3cc(F)ccc3F)nc12)N1CCC(F)C1` (stereo in doubt) [Example 10, (R)-N-(5-((1R,5S)-1-(2,5-difluorophenyl)-2-azabicyclo[3.1.0]hexan-2-yl)pyrazolo [1,5-a]pyrimidin-3-yl)-3-fluoropyrrolidine-1-carboxamide], for which the IC50 in assay [2] stood at 23 nM; in assay [3], 2 nM.
